Data set [1] concerns heart rate, conscious dog. The data set is described as follows: Heart rate-increasing activity (tachycardia) in the conscious dog. It is filed as in vivo. Particulars: Canis lupus familiaris, iv, dose for increase of 50 beats/minute, 3 to 5 dogs, read-out: Tachycardia (dog) ED50. The method, then: 1. tachycardiac effect in conscious dogs,
1. Heart rate-increasing activity in the conscious dog
The substances were injected intravenously and the heart rate was recorded using a tachygraph. After a control interval, increasing doses of the compound were administered in order to increase the heart rate. The next dose was injected when the effect of the preceding dose was no longer visible. The dosage of a substance which brought about an increase of 50 beats/minute (ED50) was determined graphically. Each substance was tested on 3 to 5 dogs.

Data set [2] concerns oxotremorin-induced saliva secretion. The data set is described as follows: Inhibition of oxotremorin-stimulated salivation in the rat. It is filed as in vivo. Particulars: iv, 15 minutes before oxotremorin 0.083 mg/kg i.v. The method, then:
2. inhibition of salivation stimulated by oxotremorin in the rat and
2. Inhibition of salivation in the rat
10 female albino rats (strain Crl:COBS-CD (SD) BR) having a body weight from 120 to 150 g, were used for each treatment group, and 24 hours before the start of the test the rats were deprived of food but given free access to drinking water.
In order to determine the muscarinic effect of oxotremorin on each of the symptoms being investigated in preliminary tests, a dosage-activity curve was drawn up with at least 3 dosages for each symptom.
When testing antimuscarinic substances, the oxotremorin dose used was that which had triggered the symptom to be influenced in 90 to 100% of the animals in the preliminary test 5.
Secretion of saliva: 0.083 mg/kg i.v.
Each antimuscarinic substance was administered intraveneously in uniformly graduated dosages 15 minutes before the administration of oxotremorin. Control groups were given the solvent and suspension agent in corresponding amounts instead of the test substance.
The results were expressed as the percentage inhibition of the oxotremorin effect (percentage of animals without the symptom in question). ED50 values were determined by the method of LITCHFIELD and WILCOXON (J. Pharmacol. Exp. Ther. 96, 99, 1949).

In data set [3] the test system is pupil size. The data set is described as follows: Mydriatic effect on the rat (increase in pupil size). Particulars: i.v.; printed as ED50 in Table I; method defines ED200 (dose doubling pupil diameter). Format: in vivo. As to the method: 3. Mydriatic activity in the rat.
3. Mydriatic effect on the rat
The mydriasis was determined by measuring the increase in pupil size after intravenous injection of the test substance. The pupil size was measured with a microscope. The measurements were taken before and at various times (15, 45 and 75 minutes) after the injection of different doses of the substance. The results were expressed as the ED200. That is the dose which doubled the diameter of the pupil, compared with the basal value. The maximum effect was usually observed between 15 and 45 minutes after intravenous administration.

For data set [4], the target named is muscarinic receptors (cortex). The data set is described as follows: Binding to muscarinic receptors, cerebral cortex (3H-NMS displacement). Particulars: rat cerebral cortex homogenate, pH 7.4, 30° C., 45 minutes, read-out: Receptor binding test IC50, Cortex. The method, then:
(§1) B. Studies of binding to muscarinic receptors: determining the IC50 value
(§2) Male Sprague-Dawley rats weighing from 180-220 g served as organ donors. After the heart, stomach and cerebral cortex had been removed, all other procedures were carried out in ice-cold Hepes-HCl buffer (pH 7.4; 100 m molar NaCl, 10 m molar MgCl2). The whole heart was cut up with scissors. All the organs were then homogenised in a Potter apparatus.
(§3) For the binding test the homogenised organs were diluted as follows:
(§4) The homogenised organs were incubated at a specific concentration of the radioactive ligand and a series of concentrations of the non-radioactive test substances in an Eppendorf centrifugal test tube at 30° C. The period of incubation was 45 minutes. 0.3 micro-mol of ^3 H-N-methylscopolamine (^3 H-NMS) was used as the radioactive ligand. After incubation had been ended by centrifuging at 14000 g, the radioactivity in the pellet was determined. It represents the sum of specific and non-specific binding of ^3 H-NMS. The proportion of non-specific binding was defined as the radioactivity which was bound in the presence of 1 micro-mol of quinuclidinyl benzylate. Fourfold measurements were taken in each case. The IC50 values of the non-labelled test substances were determined graphically. […]

Data set [5] deals with T1, muscarinic receptors (heart) (Rattus norvegicus, UniProt P10980).
T1 construct: The whole heart was cut up with scissors; All the organs were then homogenised; from tissue; host or cells: rat whole heart homogenate (male Sprague-Dawley)
T1 sequence (P10980 1-466): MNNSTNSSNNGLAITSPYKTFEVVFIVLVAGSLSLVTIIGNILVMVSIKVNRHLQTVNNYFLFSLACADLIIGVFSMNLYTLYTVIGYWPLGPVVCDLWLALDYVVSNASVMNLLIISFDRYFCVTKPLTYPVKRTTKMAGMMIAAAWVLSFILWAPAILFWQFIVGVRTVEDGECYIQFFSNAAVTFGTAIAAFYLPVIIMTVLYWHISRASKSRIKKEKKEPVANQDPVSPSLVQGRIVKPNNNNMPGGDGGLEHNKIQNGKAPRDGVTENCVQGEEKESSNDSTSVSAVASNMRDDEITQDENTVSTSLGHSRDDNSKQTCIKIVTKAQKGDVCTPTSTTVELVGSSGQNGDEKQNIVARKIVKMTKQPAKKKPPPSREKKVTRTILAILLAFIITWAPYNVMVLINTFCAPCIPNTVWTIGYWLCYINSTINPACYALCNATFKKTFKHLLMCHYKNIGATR
Put plainly: Binding to muscarinic receptors, heart (3H-NMS displacement). The conditions noted are these: rat whole heart homogenate, pH 7.4, 30° C., 45 minutes, read-out: Receptor binding test IC50, Heart. As to the method: as §1, §2, §3, §4

Data set [6] relates to platelet clots (mesenterial vein). Put plainly: Effect on platelet clots in rats (electrically induced mesenterial clots, Poliwoda et al.). It is filed as in vivo, rat. The method, then:
Effect on platelet clots in the rats
Essentially the method described by Poliwoda, Lilli, Hagemann, Schyma, in Z. ges. exp. Med. 145, 252, (1968) was used.
Male SPF rats (Chbb:THOM) weighing from 70 to 90 g, given free access to food (Altromin®), and water up until the start of the test, were anaesthetised with Nembutal administered by intraperitoneal route (50 to 60 mg/kg of pentobarbital-Na). In order to avoid hypothermia they were kept on a heated test bench (37° C.).
After the abdomen had been opened up with a transverse cut the loop of small intestine was taken out and fixed and a mesenterial vein with a diameter of 300 microns was placed under a binocular operation microscope with ×40 magnification. A monopolar V4A steel electrode embedded in glass, with a diameter of 100 microns at the tip, was applied to the vein as stimulating cathode. The anode was applied to the same vessel opposite the cathode. Stimulation was effected with 150 volts of direct current for a period of 100 microsec. After stimulation, the observation area was continuously rinsed with warm (37° C.) physiological saline solution.
The formation and growth of the clot was monitored under the microscope over a period of 20 minutes. Throughout the entire observation period, the percentage narrowing of the diameter of the vessel by the clot was determined and noted initially at 10 second intervals and later every minute. The results were recorded in terms of time in a coordinate system. […]
The area under the curve of the animals treated with the test substance was compared with that of the control animals. The reduction of the size of the clot under the influence of the substance was determined as the percentage reduction in the average value of the area under the curve of the substance-treated animals over the entire observation period compared with the average value of the controls.
The significance of the reduction was calculated by Student's t test for independent random samples (CAVALLI-SFORZA: Biometrie, G. Fischer-Verlag, Stuttgart 1969, page 72).

On to `O=C1Nc2cccnc2N(C(=O)CCC#CCN2CCCCC2)c2ccccc21` [Substance A, 5,11-dihydro-11-[1-oxo-6-(1-piperidinyl)-4-hexynyl]-6H-pyrido[2,3-b][1,4]benzodiazepin-6-one], for which the ED (50 beats/min increase) in data set [1] was 0.044 mg/kg. Further, in data set [2], the ED50 (usually the midpoint of the dose-response relation) stood at 2.05 mg/kg. Also, the “Mydriasis (rat) ED200 (dose doubling pupil diameter)” value in data set [3] is ~ 3000 micro g/kg. The IC50 (as a rule, the midpoint of a concentration-inhibition curve) was 1.2 µM in data set [4] and 0.12 µM in data set [5].
As for `O=C1Nc2cccnc2N(C(=O)CCC#CCN2CCCCCC2)c2ccccc21` [Substance B, 5,11-dihydro-11-[1-oxo-6-(hexahydro-1H-azepin-1-yl)-4-hexynyl]-6H-pyrido[2,3-b][1,4]benzodiazepin-6-one], the ED (50 beats/min increase) in data set [1] was 0.028 mg/kg. The compound further yielded an ED50 in data set [2] of 1.14 mg/kg. Besides, the “Mydriasis (rat) ED200 (dose doubling pupil diameter)” value in data set [3] came out at 2189 micro g/kg. Further, the IC50 turned out to be 0.22 µM in data set [4] and 0.03 µM in data set [5].
As for `CC(CC#CCN1CCN(C)CC1)C(=O)N1c2ccccc2C(=O)Nc2cccnc21.Cl.Cl` (stereo not shown) [Substance C in form of dihydrochloride, 5,11-Dihydro-11-[1-oxo-2-methyl-6-(4-methyl-1-piperazinyl)-4-hexynyl]-6H-pyrido[2,3-b][1,4]benzodiazepin-6-one dihydrochloride], in data set [6] (1 mg/kg i.v., n = 5, 20 minutes, significant reduction, t test, p < 0.02, control 1736.0 ± 124.2), the “"area under curve" units of area, average ± SD” value is reported as 1230.0 ± 188.0 units of area. Moreover, in data set [6] (1 mg/kg i.v., n = 5, from area under curve versus controls, p < 0.02), the “percentage reduction compared with controls (size of clot)” value is given as 29.2%. In data set [6] (rats), the “antithrombotic activity (in words)” value is recorded as “marked antithrombotic activity”.
